{
  "source": "patent US20240043389A1",
  "about": "“COMPOUNDS AND METHODS FOR INHIBITION OF BAX-MEDIATED CELL DEATH” (Albert Einstein College of Medicine, priority 2020, published 2024)",
  "key": {"[1]": {"target": "T1, BAX R145E (Homo sapiens, UniProt Q07812, R145E)", "T1 construct": "Human full-length (1-192) wild-type BAX (Q07812); made in house; host or cells: E. coli BL21 (DE3) CodonPlus (DE3)-RIPL", "T1 sequence (Q07812 whole entry R145E)": "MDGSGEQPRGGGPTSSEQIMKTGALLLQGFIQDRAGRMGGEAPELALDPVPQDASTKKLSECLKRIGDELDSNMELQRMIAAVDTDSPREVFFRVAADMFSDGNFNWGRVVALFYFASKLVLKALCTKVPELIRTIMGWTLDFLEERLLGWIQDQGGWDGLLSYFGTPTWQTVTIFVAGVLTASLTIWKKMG", "assay": "Liposomal release assay, BAX R145E mutant", "type": "biochemical", "conditions": "250 nM BAX, 5 nM tBID", "procedure": "(§1) Liposomes were formed by extrusion of the suspension using Avanti Mini-Extruder (cat #610000) with polycarbonate membranes of 0.1 μm pore size (Avanti Polar Lipids). ANTS/DPX encapsulated liposomes were purified from non-encapsulated ANTS/DPX by gel filtration of a 10 mL CL2B-Sepharose (GE Healthcare Life Sciences) gravity flow column. […] Reactions were initiated by the addition of 10 μL of the encapsulated ANTS/DPX liposome stock. ANTS/DPX release was quantified based on the increase in fluorescence intensity that occurs when the ANTS fluorophore is separated from the DPX quencher upon release from the liposomes into solution. Fluorescence (λex=355 nm and λem=520 nm) was measured at 1-minute intervals at room temperature (22-25° C.) indicated using a Tecan Infinite M1000 plate reader. In the case of heat activation, reactions were setup as described in the absence of tBID or BIM, and experiments were recorded at 42° C. The percentage release of ANTS/DPX at any given time point was calculated as percentage release=((F−F0)/(F100−F0))(100), where F0 and F100 are baseline and maximal fluorescence, respectively. Triton X-100 (1%) was used to determine the maximum amount of liposomal release per assay and was set to 100%."}, "[2]": {"target": "T2, BAX R134E R145E (Homo sapiens, UniProt Q07812, R134E/R145E)", "T2 construct": "Human full-length (1-192) wild-type BAX (Q07812); made in house; host or cells: E. coli BL21 (DE3) CodonPlus (DE3)-RIPL", "T2 sequence (Q07812 whole entry R134E/R145E)": "as the sequence (Q07812 whole entry R145E) above, with R134E counted along it", "assay": "Liposomal release assay, BAX R134E R145E mutant", "type": "biochemical", "conditions": "250 nM BAX, 5 nM tBID; read-out: IC50, inhibition of liposomal release", "procedure": "as §1"}, "[3]": {"tested_on": "BAX−/−MEFs", "assay": "STS-induced caspase 3/7 assay in BAX-/- MEFs", "type": "cell-based, mouse", "conditions": "MEFs expressing only BAK, 3 μM STS, 6 hr", "excerpt": "FIGS. 9a, 9b, 9c, 9d, 9e, and 9f are a set of diagrams showing that eltrombopag inhibits BAX translocation and BAX-mediated apoptosis in cells. […] BAX translocation is based on antibody-based detection of BAX and mitochondrial protein TOMM20. Representative confocal micrographs from three independent biological experiments. Scale bar, […]. […] Data represent ±SEM of three independent biological replicates. Two-sided t test, ****P<0.0001; ***P<0.001; **P<0.01; *P<0.05; ns, P>0.05. […] Actin and VDAC are loading controls for cytosolic and mitochondrial fractions, respectively. FIGS. 9d and 9e show a caspase 3/7 assay of BAK−/− mouse embryonic fibroblasts (MEFs) (FIG. 9d) and BAX−/−MEFs (FIG. 9e) in response to 3 μM STS and the presence or absence of various doses of EO for 6 hr. Data represent mean of n=3±SEM and are representative of three independent experiments. Two-sided t-test, **** P<0.0001; ***P<0.001;**P<0.01; *P<0.05; ns, P>0.05. […] Data represent mean of n=3±SEM."}, "[4]": {"target": "T3, BAX (Homo sapiens, UniProt Q07812)", "T3 construct": "Human full-length (1-192) wild-type BAX (Q07812); made in house; host or cells: E. coli BL21 (DE3) CodonPlus (DE3)-RIPL", "T3 sequence (Q07812 whole entry)": "as the sequence (Q07812 whole entry R145E) above, with E145R counted along it", "assay": "Competitive fluorescence polarization binding assay (FITC-BIM-SAHB displacement from BAX)", "procedure": "Fluorescence polarization assays (FPA) were performed as previously described (Reyna, D. E., et al. Cancer Cell 32 490-505 (2017)). Direct binding isotherms of BIM-SAHB were measured by incubated FITC-BIM-SAHB (25 nM) with serial dilutions of full-length BAX alone or in the presence of 0.5 or 1 μM EO. Competition binding assays were performed by titrating EO into BAX (150 nM) and FITC-BIM-SAHB (25 nM). Measurements were taken at 10-minute intervals over 60 minutes on a TECAN F200 PRO microplate reader. Reported curves represent a 10-minute time point. KD values and IC50 were determined using GraphPad Prism nonlinear fit four-parameter agonist or antagonist versus response with restraints for 100% and 0% bound calculated by the mP of saturated BAX+FITC-BIM-SAHB and FITC-BIM-SAHB alone."}, "[5]": {"target": "T4, 15N-labeled BAX (Homo sapiens, UniProt Q07812)", "T4 construct": "Human full-length (1-192) wild-type BAX (Q07812); made in house; host or cells: E. coli BL21 (DE3) CodonPlus (DE3)-RIPL", "T4 sequence (Q07812 whole entry)": "as the sequence (Q07812 whole entry R145E) above, with E145R counted along it", "assay": "1H-15N HSQC NMR chemical shift perturbation", "type": "binding", "procedure": "The uniformly ^15N-labeled protein samples were prepared by growing the bacteria in the minimal medium, as previously described (Uchime, O., et al. J Biol Chem 291, 89-102, (2016)). Unlabeled and ^15N-labeled protein samples were prepared in 50 mM potassium phosphate, 50 mM NaCl solution at pH 6.0 in 10% D20. All experiments were performed using an independent sample for each experimental measurement as a 400 μL sample in a 5-mm Shigemi; all samples were DMSO matched with 2% d6-DMSO. Correlation ^1H-^15N-HSQC spectra were recorded on ^15N-labeled BAX at 50 μM in the presence and absence of 100 μM of EO. NMR spectra were acquired at 25° C. on a Bruker 600 MHz spectrometer equipped with a cryoprobe, processed using TopSpin and analyzed using NMRView. […] The weighted average chemical shift perturbation (CSP) was calculated as √(L1δ^1H)^2+(L1δ^15N/5)^2)/2 in p.p.m. […] The significance threshold for backbone amide chemical shift changes was calculated based on the average chemical shift across all residues plus 0.5 or 1 s.d. Solvent-accessible surface area was probed by the addition of 10 mM hy-TEMPO (sigma) to 50 μM ^15N-labeled BAX with and without 100 μM EO measured using standard ^1H-^15N-HSQC with an increased recycle delay of 2 sec. PRE was calculated as the ratio of peak intensities of BAX in the presence of hy-TEMPO to BAX without hy-TEMPO (% intensity). […]"}, "[6]": {"target": "T3, BAX", "assay": "Liposomal permeabilization (release) assay", "type": "biochemical", "conditions": "compared with EO", "procedure": "as §1"}, "[7]": {"tested_on": "platelets", "assay": "Navitoclax-induced thrombocytopenia, platelet counts", "type": "in vivo, C57BL/6J mice", "conditions": "ABT-263 25 mg/kg single dose, oral gavage, within 24 hr"}, "[8]": {"tested_on": "platelets", "conditions": "platelets isolated from treated patients; cited from earlier work"}},
  "data": [
    {"molecule": "CC1=NN(c2ccc(C)c(C)c2)C(=O)/C1=N\\Nc1cccc(-c2cccc(C(=O)O)c2)c1O", "note": "[EO, eltrombopag]", "values": [
      {"measurement": "IC50 relative to BAX WT", "setting": "[1]", "value": "more than double that of BAX WT"},
      {"measurement": "IC50", "setting": "[2]", "value": "> 10", "unit": "µM"},
      {"measurement": "STS-induced apoptosis mediated by caspase 3/7 activity", "setting": "[3]", "value": "no effect"}
    ]},
    {"molecule": "COc1c(NN=C2C(=O)N(c3cccc([N+](=O)[O-])c3)N=C2C)cccc1-c1cccc(C(=O)O)c1", "note": "[EO-2, 2′-methoxy-3′-(2-(3-methyl-1-(3-nitrophenyl)-5-oxo-1,5-dihydro-4H-pyrazol-4-ylidene)hydrazineyl)-[1,1′-biphenyl]-3-carboxylic acid]", "values": [
      {"measurement": "competitive binding to the BAX trigger site (FP)", "setting": "[4]; FIG. 7a", "value": "competitive binding"}
    ]},
    {"molecule": "COC(=O)c1cccc(-c2cccc(NN=C3C(=O)N(c4ccc(C)c(C)c4)N=C3C)c2O)c1", "note": "[EO-Methyl Ester, eltrombopag methyl ester]", "values": [
      {"measurement": "chemical shift perturbations of 15N-labeled BAX", "setting": "[5]", "value": "minimal CSPs"},
      {"measurement": "inhibition of BAX in liposomal release assays", "setting": "[6]", "value": "significantly diminished inhibition"},
      {"measurement": "IC50", "setting": "[4]; BAX 150 nM, FITC-BIM-SAHB 25 nM, read-out: IC50, competition of FITC-BIM-SAHB by FPA", "value": "> 5", "unit": "µM"}
    ]},
    {"molecule": "CC1(C)CCC(c2ccc(Cl)cc2)=C(CN2CCN(c3ccc(C(=O)NS(=O)(=O)c4ccc(N[C@H](CCN5CCOCC5)CSc5ccccc5)c(S(=O)(=O)C(F)(F)F)c4)cc3)CC2)C1", "note": "[navitoclax]", "values": [
      {"measurement": "platelet loss", "setting": "[7]", "value": "significant platelet loss"}
    ]},
    {"molecule": "romiplostim", "values": [
      {"measurement": "resistance of patient platelets to ABT-263 (Navitoclax) induced cell death", "setting": "[8]", "value": "not observed"}
    ]}
  ]
}
